Assay results taken from PubChem BioAssay (NCI).
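How tested: cells in 96-well plates exposed to compound for 48 hours at five concentrations. At the TGI there is no net growth.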

What was measured:
Assay in all cases: NCI tumour cell line growth inhibition, 48 h
SF-268 CNS = system: SF-268 CNS
UO-31 renal = system: UO-31 renal
HCT-15 colon = system: HCT-15 colon
NCI-H522 lung = system: NCI-H522 lung
DU-145 prostate = system: DU-145 prostate
SNB-75 CNS = system: SNB-75 CNS
SF-295 CNS = system: SF-295 CNS
U251 CNS = system: U251 CNS
MOLT-4 leukemia = system: MOLT-4 leukemia
A498 renal = system: A498 renal
EKVX NSCLC = system: EKVX NSCLC
TK-10 renal = system: TK-10 renal
SK-MEL-5 melanoma = system: SK-MEL-5 melanoma
HOP-62 NSCLC = system: HOP-62 NSCLC
HT29 colon = system: HT29 colon
T-47D breast = system: T-47D breast
CCRF-CEM leukemia = system: CCRF-CEM leukemia
MALME-3M melanoma = system: MALME-3M melanoma
786-0 renal = system: 786-0 renal

CCOC(=O)C(SCCO)C(C(=O)OCC)n1cc(C)c(=O)[nH]c1=O (stereo not drawn)
TGI (SF-268 CNS): > 100 µM
TGI (UO-31 renal): > 62.8 µM
TGI (HCT-15 colon): 25.7 µM
TGI (NCI-H522 lung): 17.6 µM
TGI (DU-145 prostate): > 100 µM
TGI (SNB-75 CNS): > 100 µM
TGI (SF-295 CNS): > 100 µM
TGI (U251 CNS): 36.5 µM
TGI (MOLT-4 leukemia): 42.1 µM
TGI (A498 renal): 47.5 µM
TGI (EKVX NSCLC): > 100 µM
TGI (TK-10 renal): > 82.5 µM
TGI (SK-MEL-5 melanoma): > 70.6 µM
TGI (HOP-62 NSCLC): > 85.6 µM
TGI (HT29 colon): 32.2 µM
TGI (T-47D breast): > 100 µM
TGI (CCRF-CEM leukemia): 8.1 µM
TGI (MALME-3M melanoma): 38.6 µM
TGI (786-0 renal): 15.6 µM

CN(CCNC(=O)c1cc(-c2ccccc2)nc2ccccc12)CCNC(=O)c1cc(-c2ccccc2)nc2ccccc12
TGI (SF-268 CNS): > 100 µM
TGI (UO-31 renal): > 100 µM
TGI (HCT-15 colon): > 100 µM
TGI (NCI-H522 lung): > 47.5 µM
TGI (DU-145 prostate): > 95.5 µM
TGI (SNB-75 CNS): 39.9 µM
TGI (SF-295 CNS): 90.5 µM
TGI (U251 CNS): 30.9 µM
TGI (MOLT-4 leukemia): > 100 µM
TGI (A498 renal): 37.6 µM
TGI (EKVX NSCLC): > 87.8 µM
TGI (TK-10 renal): > 100 µM
TGI (SK-MEL-5 melanoma): 5.7 µM
TGI (HOP-62 NSCLC): > 100 µM
TGI (HT29 colon): 4.74 µM
TGI (T-47D breast): > 100 µM
TGI (CCRF-CEM leukemia): > 100 µM
TGI (MALME-3M melanoma): 4.09 µM
TGI (786-0 renal): 23.5 µM

CC(=O)O[C@H]1C(=O)[C@@]2(C)[C@H]([C@H](OC(=O)c3ccncc3)[C@]3(O)C[C@H](OC(=O)[C@H](O)[C@@H](NC(=O)c4ccccc4)c4ccccc4)C(C)=C1C3(C)C)[C@]1(OC(C)=O)CO[C@@H]1C[C@@H]2O
TGI (SF-268 CNS): > 25 µM
TGI (UO-31 renal): > 25 µM
TGI (HCT-15 colon): > 25 µM
TGI (NCI-H522 lung): 10.2 µM
TGI (DU-145 prostate): > 25 µM
TGI (SNB-75 CNS): > 18.1 µM
TGI (SF-295 CNS): > 25 µM
TGI (U251 CNS): > 23.3 µM
TGI (MOLT-4 leukemia): > 25 µM
TGI (A498 renal): > 25 µM
TGI (EKVX NSCLC): > 25 µM
TGI (TK-10 renal): > 25 µM
TGI (SK-MEL-5 melanoma): > 22 µM
TGI (HOP-62 NSCLC): > 25 µM
TGI (HT29 colon): > 25 µM
TGI (T-47D breast): > 25 µM
TGI (CCRF-CEM leukemia): 10.7 µM
TGI (MALME-3M melanoma): > 25 µM
TGI (786-0 renal): > 25 µM

Clc1cccc(Cl)c1C1SCc2nc3ncccc3n21 (stereo not drawn)
TGI (SF-268 CNS): > 100 µM
TGI (UO-31 renal): > 100 µM
TGI (HCT-15 colon): > 100 µM
TGI (NCI-H522 lung): > 100 µM
TGI (DU-145 prostate): > 100 µM
TGI (SNB-75 CNS): > 100 µM
TGI (SF-295 CNS): > 100 µM
TGI (U251 CNS): > 100 µM
TGI (MOLT-4 leukemia): > 100 µM
TGI (A498 renal): > 100 µM
TGI (EKVX NSCLC): > 100 µM
TGI (TK-10 renal): > 100 µM
TGI (SK-MEL-5 melanoma): > 100 µM
TGI (HOP-62 NSCLC): > 100 µM
TGI (HT29 colon): > 100 µM
TGI (T-47D breast): > 100 µM
TGI (CCRF-CEM leukemia): > 100 µM
TGI (MALME-3M melanoma): > 100 µM
TGI (786-0 renal): > 100 µM

CCCCN1C(=O)C[C@H]2[C@@H]3CCc4cc(OCCN5CCCC5)ccc4[C@H]3CC[C@]2(C)C1=O
TGI (SF-268 CNS): 28 µM
TGI (UO-31 renal): 15.6 µM
TGI (HCT-15 colon): 22.4 µM
TGI (NCI-H522 lung): 22.7 µM
TGI (DU-145 prostate): 27 µM
TGI (SNB-75 CNS): 14 µM
TGI (SF-295 CNS): 9.63 µM
TGI (U251 CNS): 19.4 µM
TGI (MOLT-4 leukemia): 14.3 µM
TGI (A498 renal): 29.4 µM
TGI (EKVX NSCLC): 30.1 µM
TGI (TK-10 renal): 28.3 µM
TGI (SK-MEL-5 melanoma): 15.7 µM
TGI (HOP-62 NSCLC): 12.2 µM
TGI (HT29 colon): 5.06 µM
TGI (T-47D breast): 30.4 µM
TGI (CCRF-CEM leukemia): 15 µM
TGI (MALME-3M melanoma): 16.1 µM
TGI (786-0 renal): 9.64 µM

Nc1nc(Cl)cc(NCC2(CO)CCC(OCc3ccccc3)C2)n1 (stereo not drawn)
TGI (SF-268 CNS): > 100 µM
TGI (UO-31 renal): 99.4 µM
TGI (HCT-15 colon): > 100 µM
TGI (NCI-H522 lung): 37.9 µM
TGI (DU-145 prostate): > 100 µM
TGI (SNB-75 CNS): 53.4 µM
TGI (SF-295 CNS): > 100 µM
TGI (U251 CNS): > 100 µM
TGI (MOLT-4 leukemia): 34.3 µM
TGI (A498 renal): 44.4 µM
TGI (EKVX NSCLC): 59.4 µM
TGI (TK-10 renal): 60.5 µM
TGI (SK-MEL-5 melanoma): 18.8 µM
TGI (HOP-62 NSCLC): > 100 µM
TGI (HT29 colon): 34 µM
TGI (T-47D breast): 52.7 µM
TGI (CCRF-CEM leukemia): > 100 µM
TGI (MALME-3M melanoma): 97.2 µM
TGI (786-0 renal): > 100 µM

O=C1C(c2c(O)[nH]c3ccc(S(=O)(=O)N(CCO)CCO)cc23)=Nc2ccccc21
TGI (SF-268 CNS): > 100 µM
TGI (UO-31 renal): > 100 µM
TGI (HCT-15 colon): > 100 µM
TGI (NCI-H522 lung): > 100 µM
TGI (DU-145 prostate): 72.3 µM
TGI (SNB-75 CNS): 8.49 µM
TGI (SF-295 CNS): > 100 µM
TGI (U251 CNS): > 100 µM
TGI (MOLT-4 leukemia): > 100 µM
TGI (A498 renal): > 100 µM
TGI (EKVX NSCLC): > 100 µM
TGI (TK-10 renal): > 100 µM
TGI (SK-MEL-5 melanoma): > 100 µM
TGI (HOP-62 NSCLC): > 100 µM
TGI (HT29 colon): > 100 µM
TGI (T-47D breast): 20.3 µM
TGI (CCRF-CEM leukemia): > 100 µM
TGI (MALME-3M melanoma): > 100 µM
TGI (786-0 renal): > 100 µM
